One block for each compound: values may come before it.
Assays:
[1] = target: Calcium/calmodulin-dependent protein kinase type 1D (Homo sapiens) (UniProt Q8IU85); conditions: at 10 µM
[2] = target: Serine/threonine-protein kinase PAK 3 (Homo sapiens) (UniProt O75914); test: Selectivity interaction (KinaseProfiler screening (Millipore)) EUB0000601a PAK3; conditions: at 3 µM
[3] = target: T1, Mitogen-activated protein kinase kinase kinase kinase 3 (Homo sapiens) (UniProt Q8IVH8); test: Selectivity interaction (KinomeScan (DiscoverX)) EUB0001049a MAP4K3; conditions: at 1 µM
T1 sequence (whole entry): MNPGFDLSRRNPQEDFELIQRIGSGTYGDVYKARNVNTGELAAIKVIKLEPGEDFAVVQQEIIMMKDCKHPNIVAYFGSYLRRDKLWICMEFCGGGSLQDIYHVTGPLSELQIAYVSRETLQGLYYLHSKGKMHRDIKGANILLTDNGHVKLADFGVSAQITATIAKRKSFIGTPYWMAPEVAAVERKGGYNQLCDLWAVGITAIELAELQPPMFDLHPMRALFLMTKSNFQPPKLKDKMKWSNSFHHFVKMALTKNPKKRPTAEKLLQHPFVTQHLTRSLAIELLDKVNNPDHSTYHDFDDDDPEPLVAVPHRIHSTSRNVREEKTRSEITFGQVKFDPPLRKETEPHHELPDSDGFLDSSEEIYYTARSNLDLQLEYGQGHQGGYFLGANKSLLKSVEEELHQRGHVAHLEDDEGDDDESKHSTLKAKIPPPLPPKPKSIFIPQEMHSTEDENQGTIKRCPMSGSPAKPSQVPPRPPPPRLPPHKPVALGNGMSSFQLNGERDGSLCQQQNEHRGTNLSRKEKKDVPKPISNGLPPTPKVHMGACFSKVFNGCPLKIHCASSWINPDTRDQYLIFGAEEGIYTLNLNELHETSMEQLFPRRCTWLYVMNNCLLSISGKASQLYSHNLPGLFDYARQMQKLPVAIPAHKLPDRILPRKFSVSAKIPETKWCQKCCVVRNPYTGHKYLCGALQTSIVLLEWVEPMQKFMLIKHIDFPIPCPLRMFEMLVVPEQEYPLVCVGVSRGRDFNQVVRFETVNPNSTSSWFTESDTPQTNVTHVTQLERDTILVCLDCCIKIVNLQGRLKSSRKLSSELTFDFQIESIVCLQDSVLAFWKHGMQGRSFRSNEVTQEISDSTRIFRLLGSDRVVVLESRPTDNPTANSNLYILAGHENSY

[4] = target: Phosphatidylinositol 4-kinase beta (Homo sapiens, UniProt Q9UBF8); test: Selectivity interaction (Ambit KINOMEscan and KiNATiv profiling in Jurkat cells) EUB0000090b PI4KB; type: cell-based; conditions: at 1 µM
Chain of Phosphatidylinositol 4-kinase beta (Q9UBF8 2-816 limits assumed): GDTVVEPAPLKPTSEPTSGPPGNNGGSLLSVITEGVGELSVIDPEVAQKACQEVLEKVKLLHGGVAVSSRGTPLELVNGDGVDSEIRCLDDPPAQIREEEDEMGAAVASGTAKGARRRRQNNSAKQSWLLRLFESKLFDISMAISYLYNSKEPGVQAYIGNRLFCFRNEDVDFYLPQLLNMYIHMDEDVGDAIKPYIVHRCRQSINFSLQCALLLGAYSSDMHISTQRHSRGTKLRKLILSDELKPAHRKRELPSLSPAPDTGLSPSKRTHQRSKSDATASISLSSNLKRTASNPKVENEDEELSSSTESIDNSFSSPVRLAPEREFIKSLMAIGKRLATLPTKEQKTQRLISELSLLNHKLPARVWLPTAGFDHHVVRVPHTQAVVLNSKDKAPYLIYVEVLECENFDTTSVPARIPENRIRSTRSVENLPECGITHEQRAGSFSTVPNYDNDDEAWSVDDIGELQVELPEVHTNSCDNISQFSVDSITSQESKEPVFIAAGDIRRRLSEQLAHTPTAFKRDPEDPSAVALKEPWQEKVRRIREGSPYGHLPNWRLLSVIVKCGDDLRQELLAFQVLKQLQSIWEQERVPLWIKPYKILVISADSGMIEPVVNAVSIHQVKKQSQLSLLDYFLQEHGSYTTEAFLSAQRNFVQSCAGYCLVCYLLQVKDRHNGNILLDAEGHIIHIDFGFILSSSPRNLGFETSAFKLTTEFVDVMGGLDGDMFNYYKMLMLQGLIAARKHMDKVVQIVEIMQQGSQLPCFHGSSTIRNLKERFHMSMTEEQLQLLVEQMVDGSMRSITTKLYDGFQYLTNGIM

[5] = target: Ribosomal protein S6 kinase alpha-5 (Homo sapiens) (UniProt O75582); conditions: at 10 µM
Chain of Ribosomal protein S6 kinase alpha-5 (Homo sapiens) (O75582 whole entry, looked up): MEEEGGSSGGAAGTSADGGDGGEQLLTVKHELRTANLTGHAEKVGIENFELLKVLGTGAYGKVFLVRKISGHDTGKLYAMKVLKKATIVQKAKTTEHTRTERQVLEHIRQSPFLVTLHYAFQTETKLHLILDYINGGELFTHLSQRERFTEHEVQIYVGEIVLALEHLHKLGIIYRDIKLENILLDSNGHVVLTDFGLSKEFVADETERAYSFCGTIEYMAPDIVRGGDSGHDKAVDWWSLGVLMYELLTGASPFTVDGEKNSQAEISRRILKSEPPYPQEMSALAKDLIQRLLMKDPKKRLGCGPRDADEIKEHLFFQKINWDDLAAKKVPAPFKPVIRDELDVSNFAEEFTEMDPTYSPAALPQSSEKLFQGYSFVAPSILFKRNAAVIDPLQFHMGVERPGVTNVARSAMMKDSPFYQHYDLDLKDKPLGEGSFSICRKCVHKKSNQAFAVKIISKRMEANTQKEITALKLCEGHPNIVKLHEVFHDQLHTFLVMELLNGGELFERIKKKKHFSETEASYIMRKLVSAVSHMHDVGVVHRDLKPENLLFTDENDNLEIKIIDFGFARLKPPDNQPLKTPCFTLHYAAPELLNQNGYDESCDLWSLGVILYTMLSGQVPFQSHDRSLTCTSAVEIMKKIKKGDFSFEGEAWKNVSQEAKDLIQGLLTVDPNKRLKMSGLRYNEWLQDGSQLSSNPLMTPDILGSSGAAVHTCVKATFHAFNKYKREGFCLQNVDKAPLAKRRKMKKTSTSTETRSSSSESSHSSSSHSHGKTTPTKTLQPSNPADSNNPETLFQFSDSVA

[6] = target: T2, Serine/threonine-protein kinase PLK4 (Homo sapiens) (UniProt O00444); test: Selectivity interaction (ProQinase) EUB0000171b PLK4
T2 sequence (whole entry): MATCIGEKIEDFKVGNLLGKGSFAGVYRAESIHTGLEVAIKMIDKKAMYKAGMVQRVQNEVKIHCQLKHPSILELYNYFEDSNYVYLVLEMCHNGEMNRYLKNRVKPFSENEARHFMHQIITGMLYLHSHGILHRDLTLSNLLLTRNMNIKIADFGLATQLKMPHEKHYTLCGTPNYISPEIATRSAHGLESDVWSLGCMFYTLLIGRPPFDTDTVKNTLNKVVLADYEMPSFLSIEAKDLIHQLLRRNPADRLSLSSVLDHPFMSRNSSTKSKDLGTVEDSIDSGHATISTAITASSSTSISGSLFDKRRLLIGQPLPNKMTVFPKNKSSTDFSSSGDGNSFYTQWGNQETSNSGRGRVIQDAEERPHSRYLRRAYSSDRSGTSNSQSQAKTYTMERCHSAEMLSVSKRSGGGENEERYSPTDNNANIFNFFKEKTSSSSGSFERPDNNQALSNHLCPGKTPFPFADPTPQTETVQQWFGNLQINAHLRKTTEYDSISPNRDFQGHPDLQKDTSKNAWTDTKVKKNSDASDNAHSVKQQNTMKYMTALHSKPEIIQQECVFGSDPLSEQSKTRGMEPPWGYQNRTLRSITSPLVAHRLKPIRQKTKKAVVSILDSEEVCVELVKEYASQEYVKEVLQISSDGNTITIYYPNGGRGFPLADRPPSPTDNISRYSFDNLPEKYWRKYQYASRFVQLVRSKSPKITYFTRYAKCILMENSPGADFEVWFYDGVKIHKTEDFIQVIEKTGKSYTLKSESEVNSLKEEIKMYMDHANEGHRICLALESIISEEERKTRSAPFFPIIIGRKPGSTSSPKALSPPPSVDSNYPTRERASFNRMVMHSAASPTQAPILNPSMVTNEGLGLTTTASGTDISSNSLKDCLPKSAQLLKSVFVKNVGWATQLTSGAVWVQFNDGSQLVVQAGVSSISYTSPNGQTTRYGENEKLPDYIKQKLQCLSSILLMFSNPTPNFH

[7] = target: Ephrin type-A receptor 5 (Homo sapiens) (UniProt P54756); test: Selectivity interaction (KinomeScan (DiscoverX)) EUB0001619a EPHA5; conditions: at 1 µM
Chain of Ephrin type-A receptor 5 (Homo sapiens) (P54756 whole entry): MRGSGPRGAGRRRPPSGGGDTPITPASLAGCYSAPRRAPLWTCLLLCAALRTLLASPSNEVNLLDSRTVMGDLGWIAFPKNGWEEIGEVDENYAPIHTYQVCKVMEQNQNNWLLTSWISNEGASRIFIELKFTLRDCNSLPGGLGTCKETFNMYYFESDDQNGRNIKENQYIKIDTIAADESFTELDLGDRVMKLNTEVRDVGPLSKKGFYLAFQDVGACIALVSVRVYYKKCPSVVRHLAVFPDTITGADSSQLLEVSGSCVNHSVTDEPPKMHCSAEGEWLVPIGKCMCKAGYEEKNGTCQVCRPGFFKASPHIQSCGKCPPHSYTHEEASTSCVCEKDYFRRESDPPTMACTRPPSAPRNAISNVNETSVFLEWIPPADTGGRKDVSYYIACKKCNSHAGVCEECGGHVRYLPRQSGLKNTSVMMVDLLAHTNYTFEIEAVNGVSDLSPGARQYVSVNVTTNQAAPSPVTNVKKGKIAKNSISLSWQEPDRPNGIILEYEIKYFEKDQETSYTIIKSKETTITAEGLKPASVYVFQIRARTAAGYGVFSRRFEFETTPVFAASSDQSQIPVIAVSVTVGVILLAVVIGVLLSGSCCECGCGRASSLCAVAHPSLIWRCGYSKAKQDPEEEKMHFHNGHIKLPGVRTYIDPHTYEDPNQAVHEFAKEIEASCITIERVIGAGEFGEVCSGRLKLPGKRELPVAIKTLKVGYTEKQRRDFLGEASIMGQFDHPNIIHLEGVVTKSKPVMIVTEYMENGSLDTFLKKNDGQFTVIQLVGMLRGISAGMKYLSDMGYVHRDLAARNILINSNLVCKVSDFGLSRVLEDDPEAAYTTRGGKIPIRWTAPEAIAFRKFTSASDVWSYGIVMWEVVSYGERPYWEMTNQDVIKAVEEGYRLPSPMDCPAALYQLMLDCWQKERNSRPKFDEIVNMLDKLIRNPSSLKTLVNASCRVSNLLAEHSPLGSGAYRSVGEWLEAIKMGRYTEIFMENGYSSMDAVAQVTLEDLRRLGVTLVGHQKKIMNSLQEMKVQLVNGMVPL

[8] = target: Insulin-like growth factor 1 receptor (Homo sapiens, UniProt P08069); test: Selectivity interaction (KinomeScan (DiscoverX)) EUB0001619a IGF1R; conditions: at 1 µM
[9] = target: T3, Dual specificity mitogen-activated protein kinase kinase 3 (Homo sapiens) (UniProt P46734); test: Selectivity interaction (Kinase panel (KiNativ target engagement assay in Jurkat cells)) EUB0001635a MAP2K3; type: cell-based; conditions: at 1 µM
T3 sequence (whole entry): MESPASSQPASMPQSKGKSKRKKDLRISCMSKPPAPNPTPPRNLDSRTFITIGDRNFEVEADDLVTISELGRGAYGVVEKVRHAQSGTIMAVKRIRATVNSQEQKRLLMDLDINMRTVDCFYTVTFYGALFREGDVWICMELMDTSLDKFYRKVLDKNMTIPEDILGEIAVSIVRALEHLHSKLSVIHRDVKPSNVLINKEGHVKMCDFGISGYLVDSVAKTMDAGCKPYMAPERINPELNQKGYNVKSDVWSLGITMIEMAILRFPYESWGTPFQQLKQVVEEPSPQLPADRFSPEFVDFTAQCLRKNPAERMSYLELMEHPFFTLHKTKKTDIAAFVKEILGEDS

[10] = target: Tyrosine-protein kinase CSK (Homo sapiens) (UniProt P41240); test: Selectivity interaction (KinomeScan (DiscoverX)) EUB0000666a CSK; conditions: at 10 µM
Chain of Tyrosine-protein kinase CSK (Homo sapiens) (P41240 2-450 limits assumed): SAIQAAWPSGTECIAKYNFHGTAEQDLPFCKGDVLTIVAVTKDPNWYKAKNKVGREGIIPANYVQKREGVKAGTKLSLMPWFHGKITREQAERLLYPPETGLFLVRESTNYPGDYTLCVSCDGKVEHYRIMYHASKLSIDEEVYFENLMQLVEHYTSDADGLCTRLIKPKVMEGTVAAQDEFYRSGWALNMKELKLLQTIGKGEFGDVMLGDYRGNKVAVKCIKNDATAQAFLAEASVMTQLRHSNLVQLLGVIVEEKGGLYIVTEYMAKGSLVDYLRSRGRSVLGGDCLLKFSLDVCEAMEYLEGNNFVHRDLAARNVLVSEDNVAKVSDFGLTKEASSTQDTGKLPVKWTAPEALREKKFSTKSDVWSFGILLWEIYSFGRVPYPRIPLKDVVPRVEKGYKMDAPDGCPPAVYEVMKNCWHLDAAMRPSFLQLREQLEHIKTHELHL

[11] = target: Serine/threonine-protein kinase PRP4 homolog (Homo sapiens) (UniProt Q13523); test: Selectivity interaction (KinomeScan (DiscoverX)) EUB0000666a PRPF4B; conditions: at 10 µM
Chain of Serine/threonine-protein kinase PRP4 homolog (Homo sapiens) (Q13523 whole entry): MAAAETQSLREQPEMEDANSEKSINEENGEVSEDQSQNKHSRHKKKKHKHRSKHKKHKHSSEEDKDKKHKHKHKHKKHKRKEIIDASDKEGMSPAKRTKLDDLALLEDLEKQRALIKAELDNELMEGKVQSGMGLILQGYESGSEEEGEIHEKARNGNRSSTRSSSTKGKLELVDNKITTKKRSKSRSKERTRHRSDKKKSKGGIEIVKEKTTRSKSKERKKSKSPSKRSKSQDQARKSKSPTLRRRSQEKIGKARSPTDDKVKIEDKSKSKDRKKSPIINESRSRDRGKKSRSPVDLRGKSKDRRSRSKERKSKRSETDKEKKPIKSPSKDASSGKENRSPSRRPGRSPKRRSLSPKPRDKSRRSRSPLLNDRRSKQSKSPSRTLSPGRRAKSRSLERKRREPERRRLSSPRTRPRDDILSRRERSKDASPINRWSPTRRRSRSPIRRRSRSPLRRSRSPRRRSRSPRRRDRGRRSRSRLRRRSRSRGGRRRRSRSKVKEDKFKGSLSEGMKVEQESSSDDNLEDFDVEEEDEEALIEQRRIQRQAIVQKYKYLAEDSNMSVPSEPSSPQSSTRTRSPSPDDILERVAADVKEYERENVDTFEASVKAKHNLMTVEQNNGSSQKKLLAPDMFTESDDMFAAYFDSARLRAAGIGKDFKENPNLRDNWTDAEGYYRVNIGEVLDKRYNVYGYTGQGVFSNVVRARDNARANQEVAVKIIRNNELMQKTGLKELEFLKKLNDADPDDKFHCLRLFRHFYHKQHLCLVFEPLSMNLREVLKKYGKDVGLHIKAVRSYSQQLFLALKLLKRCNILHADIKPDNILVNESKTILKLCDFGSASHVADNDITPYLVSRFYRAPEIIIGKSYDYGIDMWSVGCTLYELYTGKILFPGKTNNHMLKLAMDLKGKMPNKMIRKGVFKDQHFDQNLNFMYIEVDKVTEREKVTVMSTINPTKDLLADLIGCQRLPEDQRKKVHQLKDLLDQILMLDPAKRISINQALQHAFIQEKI

Chain of Calcium/calmodulin-dependent protein kinase type 1D (Homo sapiens) (Q8IU85 whole entry, looked up): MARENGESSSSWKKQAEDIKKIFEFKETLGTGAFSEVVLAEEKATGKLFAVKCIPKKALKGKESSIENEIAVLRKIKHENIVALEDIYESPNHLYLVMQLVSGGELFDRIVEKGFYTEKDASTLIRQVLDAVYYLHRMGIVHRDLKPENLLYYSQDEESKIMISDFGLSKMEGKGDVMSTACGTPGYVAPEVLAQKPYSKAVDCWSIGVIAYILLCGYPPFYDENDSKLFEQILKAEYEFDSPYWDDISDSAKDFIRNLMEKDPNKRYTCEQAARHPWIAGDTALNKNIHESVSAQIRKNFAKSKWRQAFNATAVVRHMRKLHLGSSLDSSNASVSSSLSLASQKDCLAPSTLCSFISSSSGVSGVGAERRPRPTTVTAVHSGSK
Chain of Serine/threonine-protein kinase PAK 3 (Homo sapiens) (O75914 whole entry, looked up): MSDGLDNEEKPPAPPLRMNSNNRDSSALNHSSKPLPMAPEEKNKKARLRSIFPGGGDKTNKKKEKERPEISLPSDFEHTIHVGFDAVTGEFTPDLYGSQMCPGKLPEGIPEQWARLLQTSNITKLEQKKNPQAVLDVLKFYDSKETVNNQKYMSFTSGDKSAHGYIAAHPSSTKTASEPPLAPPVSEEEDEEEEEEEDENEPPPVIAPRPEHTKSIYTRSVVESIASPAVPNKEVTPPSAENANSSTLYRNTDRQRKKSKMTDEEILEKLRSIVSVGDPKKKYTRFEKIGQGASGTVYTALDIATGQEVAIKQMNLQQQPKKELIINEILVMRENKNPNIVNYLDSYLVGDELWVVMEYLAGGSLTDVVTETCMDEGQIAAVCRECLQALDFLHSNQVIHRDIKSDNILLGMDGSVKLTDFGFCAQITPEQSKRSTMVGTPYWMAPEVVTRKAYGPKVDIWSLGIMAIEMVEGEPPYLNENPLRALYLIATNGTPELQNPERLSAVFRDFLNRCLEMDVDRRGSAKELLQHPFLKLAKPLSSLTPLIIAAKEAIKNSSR

Structure (SMILES): Cc1cc([C@@H](C)Nc2ccccc2C(=O)O)c2nc(N3CCOCC3)cc(=O)n2c1 [AZD-6482]
% of control [1]: 100%

% of inhibition [2]: 53%
Structure (SMILES): CCc1cc(Nc2nccc(-c3c(-c4ccc(OC)c(C(=O)Nc5c(F)cccc5F)c4)nc4ccccn34)n2)c(OC)cc1N1CCC(N2CCN(S(C)(=O)=O)CC2)CC1

Structure (SMILES): COc1cc(Nc2nc(C)cc(-c3cnn4nc(OC)ccc34)n2)cc(C(F)(F)F)c1
% of control [3]: 100%

Structure (SMILES): CN(C)C/C=C/C(=O)Nc1ccc(C(=O)N2CCCC(Nc3ncc(Cl)c(-c4c[nH]c5ccccc45)n3)C2)cc1 (stereo not drawn)
% of control [4]: 88%

Structure (SMILES): COCC(=O)NC/C=C/c1ccc2ncnc(Nc3ccc(Oc4ccc(C)nc4)c(C)c3)c2c1 [CP-724714]
% of control [5]: 98%

% of control ([6]; at 1 µM): 77% | % of control ([6]; at 5 µM): 57%
Structure (SMILES): C=CC(=O)Nc1cccc(C(=O)Nc2ccc(Nc3cc(-c4[nH]c(SC)nc4C)ccn3)cc2)c1

Structure (SMILES): N#Cc1cccc(-c2c[nH]c3ncnc(N4CCOCC4)c23)c1
% of control [7]: 99% | % of control [8]: 87%

Structure (SMILES): C=CC(=O)Nc1ccc(C(=O)Nc2[nH]nc3c2CN(C(=O)N[C@H](CN(C)C)c2ccccc2)C3(C)C)cc1
% of engagement ([9]; Selectivity number of off-targets 0.0, Selectivity number of targets 233.0, Source Knowledge https://www.sciencedirect.com/science/article/pii/S2451945619300674?via%3Dihub): 8.4% | % of engagement [9]: -7.7%

Structure (SMILES): O=C(NOC[C@H](O)CO)c1ccc(F)c(F)c1Nc1ccc(I)cc1F
% of control [10]: 100% | % of control [11]: 77%
